Assay results: publication PMC5094990, “Novel 1, 3-N, O-Spiroheterocyclic compounds inhibit heparanase activity and enhance nedaplatin-induced cytotoxicity in cervical cancer cells” (Oncotarget, 2016)
Like-named read-outs stand apart in the source and are kept apart here.

Legend:
[1] = tested on: h-TERT; assay: h-TERT expression in HeLa and Siha cells (western blot and PCR); assay type: cell-based, human; conditions: both HeLa and Siha cells, 50 μM, 48 hours
Protocol: (§1) Cells were washed with precooled PBS after being treated with inhibitor for 48 hours, and cell lysis solution was added to extract protein. The sample concentration was measured by the bicinchoninic acid method. 30 μg of protein was separated by 10% polyacrylamide gel electrophoresis (PAGE) and transferred to polyvinylidene difluoride membranes. After blocking in non-fat milk solution at room temperature, the membranes were incubated with diluted primary antibodies against either proteins of interest or β-actin overnight at 4°C. After consecutive washes, the membranes were incubated with secondary antibody (diluted 1:5000) at room temperature for 1 h. Then, the membranes were developed with enhanced chemiluminescence and imaged with ImageQuant LAS4000 (GE Healthcare Life Sciences, Pittsburgh, PA). The grey values of protein bands were analyzed using Image J (National Institutes of Health, USA). The relative levels of proteins of interest were calculated in comparison to the internal reference β-actin. The experiment was repeated three times.
(§2) Levels of HPA, p53, c-Myc, and hTERT mRNA were analyzed by real-time PCR. mRNA was extracted from cells and separated and purified with Trizol. The total RNA concentration was measured with an ultraviolet spectrophotometer. The quality of total RNA was assessed using 1.5% agarose gel electrophoresis. […]

[2] = tested on: p53; assay: p53 expression in HeLa and Siha cells (western blot and PCR); assay type: cell-based, human; conditions: both HeLa and Siha cells, 50 μM, 48 hours
Protocol: as §1, §2

[3] = tested on: Siha cells; assay: Cell wound healing assay (migration), Siha cells; assay type: cell-based, human; conditions: 50 μM, 24 hours, compared to control
Protocol: (§3) Straight lines 0.5 cm apart from each other were marked on the bottoms of culture dishes opposite the label lines. Logarithmic phase cells were seeded into 35 mm culture dishes. Nicks were made 0.5 cm apart on the bottom of the dish along the labeled lines with a 200 μl sterile pipette tip after cells were close to saturated. Dishes were then washed with sterile PBS three times, 2% FBS medium containing 0 or 50 μM of No. 16 inhibitor was added, and dishes were incubated for 24 hours. The scratch width was photographed under phase contrast on an inverted microscope with a digital camera (100× magnification). The experiment was repeated three times.

[4] = tested on: HeLa cells; assay: Cell wound healing assay (migration), HeLa cells; assay type: cell-based, human; conditions: 50 μM, 24 hours, compared to control
Protocol: as §3

[5] = tested on: HeLa cells; assay: MTT assay, growth inhibition of HeLa cells; assay type: cell-based, human; conditions: for IC50 / inhibition at 1 µM / inhibition at 5 µM / inhibition at 15 µM / inhibition at 30 µM / inhibition at 60 µM / inhibition at 120 µM / inhibition at 180 µM / inhibition at 240 µM: Homo sapiens, HeLa; for inhibition at 1 µM / inhibition at 5 µM / inhibition at 15 µM / inhibition at 30 µM / inhibition at 60 µM / inhibition at 120 µM / inhibition at 180 µM / inhibition at 240 µM: read-out: Growth inhibition rate in HeLa cells
Protocol: (§4) Cells were cultured in improved medium supplemented with 10% FBS and kept at 37°C in a […] humidified atmosphere containing 5% CO2. Logarithmic phase cells were used for the experiment and were treated with different concentrations of different medications for different amounts of time. […] Inhibitors were made into 10 mM stock solutions with DMSO, filtered, and kept at room temperature away from light. These inhibitor stock solutions were diluted to the required concentration (1, 5, 15, 30, 60, 120, 180, or 240 μM) before every experiment. The final doses of nedaplatin were […]. In order to determine whether an HPA inhibitor sensitized cells to nedaplatin, 10 μM of inhibitor number 16 (No. 16) was added into each experimental well with nedaplatin.
200 μl of single-cell suspension at a density of 5 × 10^4 cells/ml was seeded into 96-well plates. When cells were adherent, the medium was replaced with 200 μl of medium containing different concentrations of inhibitor or nedaplatin, and the cells were further incubated for 24 hours to 96 hours respectively. 20 μl MTT solution ([…] in phosphate buffered saline (PBS)) was added to each well 4 hours before the treatment ended. The cells were then incubated for another 4 hours, after which the supernatants were removed. The cells were totally solubilized in 150 μl DMSO. OD values were measured at the wavelength of 492 nm with a reference wavelength of 630 nm. Inhibition rate (IR) in the cells was calculated as follows: IR = ((OD2-OD0)-(OD1-OD0))/(OD2-OD0) × 100%, where OD0 was the OD value of blank wells, OD2 was the value of normal control wells, and OD1 was the value of experimental wells. Each condition was replicated in six separate wells.

[6] = tested on: HaCaT cells; assay: Cell wound healing assay (migration), HaCaT cells; assay type: cell-based, human; conditions: 50 μM, 24 hours, compared to control
Protocol: as §3

[7] = tested on: c-Myc; assay: c-Myc expression in HeLa and Siha cells (western blot and PCR); assay type: cell-based, human; conditions: both HeLa and Siha cells, 50 μM, 48 hours
Protocol: as §1, §2

[8] = tested on: Siha cells; assay: MTT assay, growth inhibition of Siha cells; assay type: cell-based, human
Protocol: as §4
(§5) 200 μl of single-cell suspension at a density of 5 × 10^4 cells/ml was seeded into 96-well plates. […] OD values were measured at the wavelength of 492 nm with a reference wavelength of 630 nm. Inhibition rate (IR) in the cells was calculated as follows: IR = ((OD2-OD0)-(OD1-OD0))/(OD2-OD0) × 100%, where OD0 was the OD value of blank wells, OD2 was the value of normal control wells, and OD1 was the value of experimental wells. […]

[9] = tested on: HaCaT human normal keratinocytes; assay: MTT assay, growth inhibition of HaCaT cells; assay type: cell-based; conditions: time not given
Protocol: as §4, §5

[10] = tested on: HPA; assay: HPA expression in HeLa and Siha cells (immunocytochemical staining, western blot, real time PCR); assay type: cell-based, human; conditions: 50 μM, 24 hours, stronger after 48 hours
From the text: The experiment was repeated three times.
The experiment was repeated twice.

[11] = molecular target: T1, human recombinant HPA (Homo sapiens, UniProt Q9Y251); assay: Detection of HPA activity inhibition (Heparan Degrading Enzyme Assay Kit); assay type: biochemical; conditions: 31 mIU human recombinant HPA, 37°C, 45 minutes; read-out: IC50, inhibitory effect on heparanase activity
T1 sequence (Q9Y251 158-543 limits assumed): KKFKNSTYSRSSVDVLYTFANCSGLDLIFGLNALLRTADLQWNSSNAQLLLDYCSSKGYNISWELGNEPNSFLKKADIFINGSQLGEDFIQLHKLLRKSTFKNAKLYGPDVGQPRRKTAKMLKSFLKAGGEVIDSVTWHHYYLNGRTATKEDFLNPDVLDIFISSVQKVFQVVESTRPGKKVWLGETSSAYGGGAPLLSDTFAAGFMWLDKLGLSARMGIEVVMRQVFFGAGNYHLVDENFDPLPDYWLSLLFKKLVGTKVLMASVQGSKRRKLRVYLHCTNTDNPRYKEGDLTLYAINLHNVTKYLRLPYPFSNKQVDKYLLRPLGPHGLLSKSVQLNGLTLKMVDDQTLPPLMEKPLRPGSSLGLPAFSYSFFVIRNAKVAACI
T1 sequence (Q9Y251 36-109 limits assumed): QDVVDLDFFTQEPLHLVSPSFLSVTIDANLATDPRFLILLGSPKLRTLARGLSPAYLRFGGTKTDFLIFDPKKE
Protocol: The final reaction volume of each vial was 100 μl. […] Then, 100 μl of terminating liquid was added into each well. OD values were examined at a wavelength of 450 nm. Each concentration was tested in three separate wells. GraphPad Prism 5 (GraphPad Prism Software Inc., San Diego) was used to calculate the inhibitory IC50 values.

[12] = 48 hours, MTT, read-out: IC50, growth inhibition of HeLa cells

melting point [°C] | IC50 [5, 12] [µM] | Structure (SMILES) | inhibition at 1 µM ([5]; 1 μM, 48 hs, mean ± s) [%] | inhibition at 5 µM ([5]; 5 μM, 48 hs, mean ± s) [%] | inhibition at 15 µM ([5]; 15 μM, 48 hs, mean ± s) [%] | inhibition at 30 µM ([5]; 30 μM, 48 hs, mean ± s) [%] | inhibition at 60 µM ([5]; 60 μM, 48 hs, mean ± s) [%] | inhibition at 120 µM ([5]; 120 μM, 48 hs, mean ± s) [%] | inhibition at 180 µM ([5]; 180 μM, 48 hs, mean ± s) [%] | inhibition at 240 µM ([5]; 240 μM, 48 hs, mean ± s) [%] | further results
130.4 to 131.2 | 64.2 | Fc1cccc(F)c1C1NCC(c2ccccc2)C2(CCCCC2)O1 (stereo not drawn) [No. 14] | 2.92 ± 0.155 | 4.05 ± 0.888 | 9.57 ± 0.761 | 17.9 ± 1.2 | 46.4 ± 1.22 | 78.58 ± 0.502 | 96.98 ± 0.86 | 98.96 ± 0.517 | IC50 [11]: 4.47 µM
127.7 to 128.5 | 70.2 | Clc1ccc(C2NCC(c3ccccc3)C3(CCCCC3)O2)cc1 (stereo not drawn) [No. 11] | 1.22 ± 0.0789 | 2.65 ± 0.0739 | 5.26 ± 0.294 | 13.6 ± 1.22 | 41.8 ± 1.19 | 71.4 ± 1.15 | 97.18 ± 0.525 | 98.02 ± 0.465 | 

Continued, compound first:

Structure (SMILES) | melting point [°C] | IC50 [5, 12] [µM] | inhibition at 1 µM ([5]; 1 μM, 48 hs, mean ± s) [%] | inhibition at 5 µM ([5]; 5 μM, 48 hs, mean ± s) [%] | inhibition at 15 µM ([5]; 15 μM, 48 hs, mean ± s) [%] | inhibition at 30 µM ([5]; 30 μM, 48 hs, mean ± s) [%] | inhibition at 60 µM ([5]; 60 μM, 48 hs, mean ± s) [%] | inhibition at 120 µM ([5]; 120 μM, 48 hs, mean ± s) [%] | inhibition at 180 µM ([5]; 180 μM, 48 hs, mean ± s) [%] | inhibition at 240 µM ([5]; 240 μM, 48 hs, mean ± s) [%] | further results
COc1ccc(C2CNC(c3ccccc3F)OC23CCCCC3)cc1 (stereo not drawn) [No. 16] | 171.3 to 172.5 |  |  |  |  |  |  |  |  |  | Effect on h-TERT expression [1]: decreased; Effect on p53 expression [2]: increased; Effect on cell migration (scratch width) [3]: inhibited the migration; Effect on cell migration (scratch width) [4]: inhibited the migration; IC50 ([5]; 48 h, read-out: IC50, growth inhibition of HeLa cells, 48 hours, MTT): 48.2 µM; inhibition at 1 µM [5]: 7.41 ± 0.976%; inhibition at 5 µM [5]: 11 ± 0.467%; inhibition at 15 µM [5]: 20.2 ± 0.779%; inhibition at 30 µM [5]: 36.5 ± 0.471%; inhibition at 60 µM [5]: 59.3 ± 1.1%; inhibition at 120 µM [5]: 87.6 ± 0.891%; inhibition at 180 µM [5]: 92.89 ± 0.537%; inhibition at 240 µM [5]: 92.98 ± 0.237%; Effect on cell migration (scratch width) [6]: minimal; Effect on c-Myc expression [7]: decreased; IC50 ([8]; Homo sapiens, SiHa, read-out: IC50, growth inhibition of Siha cells): 78.8 µM; IC50 [9]: 1710 µM; Effect on HPA levels [10]: reduced HPA levels
Fc1ccc(C2NCC(c3ccccc3)C3(CCCCC3)O2)cc1 (stereo not drawn) [No. 12] |  | 96.6 | -5.15 ± 0.0626 | -1.54 ± 0.472 | 5.39 ± 0.33 | 8.76 ± 1.21 | 31.7 ± 1.21 | 55.5 ± 0.671 | 89.01 ± 0.491 | 90.89 ± 0.416 | 
[NH2][Pt]1([NH2])[O]CC(=O)[O]1 [nedaplatin] |  |  |  |  |  |  |  |  |  |  | IC50, growth inhibition of HeLa cells by nedaplatin alone ([5]; 48 hours, nedaplatin alone, listed as NDP): 2.878 µg/mL; IC50, growth inhibition of Siha cells by nedaplatin alone ([8]; 48 hours, nedaplatin alone): 11.204 µg/mL
